Results published in patent US5077292A, “(2-imidazolin-2-ylamino) tetrahydroquinoxalines and methods for using same” (priority 1989, dated 1991).

Columns and labels:
[1] = test system: Alpha 3 Adrenergic Receptors; experiment: Rabbit Saphenous Vein: Alpha 3 Adrenergic Receptors; assay type: cell-based, albino rabbit; conditions: rabbit saphenous vein rings, 37° C., field stimulated; n = number of test runs
Protocol: (§1) The tetrahydroquinoxalines produced in Examples 1 to 3 were tested for activity using the following in vitro methods.
Rabbit Saphenous Vein: Alpha 3 Adrenergic Receptors
Thoracic aorta and saphenous vein specimens were obtained from albino rabbits that were killed by CO2 inhalation. The aorta and saphenous vein were each cut into 3 mm rings. Tissues were placed in Krebs-Hensleit solution of the following composition (millimolar): NaCl 119; KCl 4.7; MgSO4 1.5, KH2 PO4 1.2; CaCl2 2.5; NaHCO3 25 and glucose 11.0. The solution also contained cocaine (0.1 millimolar) to block neuronal uptake and EDTA (30 micromolar) and ascorbic acid (5 micromolar) to prevent oxidation of the tetrahydroquinoxaline being tested. Tissues were hung in 10 ml organ baths and tension was measured via Grass FT03 force-displacement transducers. Resting tension was 1 g and 2 g for the saphenous vein and aorta, respectively. The solution was gassed with 95% O2 and 5% CO2 and maintained at 37° C. Tissues were allowed to equilibrate for 2 hours before stimulation and the cumulative addition of the tetrahydroquinoxaline being treated was started. Tissue stimulation was performed as with the rabbit vas deferens, described above. The contractions of the tissue were recorded isometrically as for the rabbit vas deferens assay. […]

[2] = target: T1, Alpha 2 Adrenergic Receptors (Oryctolagus cuniculus, UniProt Q5ZQK3); experiment: Rabbit Vas Deferens: Alpha 2 Adrenergic Receptors; assay type: cell-based, New Zealand white rabbit; conditions: 35° C., field stimulated, 50% reduction in response height, n = number of test runs
T1 construct: from tissue; host or cells: New Zealand white rabbit vas deferens, prostatic end, field stimulated
T1 sequence (Q5ZQK3 1-451): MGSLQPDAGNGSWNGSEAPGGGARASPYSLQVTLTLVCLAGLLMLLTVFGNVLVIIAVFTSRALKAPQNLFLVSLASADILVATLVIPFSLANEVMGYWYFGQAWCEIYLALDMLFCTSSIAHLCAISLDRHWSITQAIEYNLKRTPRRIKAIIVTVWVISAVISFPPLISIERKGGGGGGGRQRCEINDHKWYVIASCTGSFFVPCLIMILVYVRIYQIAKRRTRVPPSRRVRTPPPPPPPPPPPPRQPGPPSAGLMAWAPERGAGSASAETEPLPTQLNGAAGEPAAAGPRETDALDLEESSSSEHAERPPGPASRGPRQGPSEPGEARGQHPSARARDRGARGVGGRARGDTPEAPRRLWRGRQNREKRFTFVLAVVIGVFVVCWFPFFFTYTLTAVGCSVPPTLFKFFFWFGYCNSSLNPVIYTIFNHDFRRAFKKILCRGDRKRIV
Protocol: as §1
Rabbit Vas Deferens: Alpha 2 Adrenergic Receptors
New Zealand white rabbits (2-3 kg) were killed by CO2 inhalation and the vasa deferentia removed. The prostatic ends of the vasa deferentia (2-3 cm lengths) were mounted between platinum ring electrodes in 9 ml organ baths and bathed in Krebs bicarbonate solution of the following composition (millimolar): NaCl 118.0; KCl 4.7; CaCl2 2.5; MgSO4 1.2; KH2 PO4 1.2; glucose 11.0; NaHCO3 25.0; which solution was maintained at 35° C. and bubbled with 95% O2 and 5% CO2. The initial tension of the vas deferens was 0.5 g. The tissues were left to equilibrate for 30 minutes before stimulation was started. Vasa were then field stimulated (0.1 Hz, 2 ms pulse width at 90 mA) using a square wave stimulator (WPI A310 Accupulser with A385 stimulus). […] Cumulative concentration-response curves were obtained for the tetrahydroquinoxaline being tested with a 4 minute contact time at each concentration. The reduction in response height was measured and expressed as a percentage of the height of the response before the addition of tetrahydroquinxoaline. Concentration response curves for each of tetrahydroquinoxalines were plotted. The effective concentration required for a 50% reduction in response height, expressed as EC50, were obtained from these curves and are set forth below.

[3] = test system: Alpha 1 Adrenergic Receptors; experiment: Rabbit Aorta: Alpha 1 Adrenergic Receptors; assay type: cell-based, albino rabbit; conditions: rabbit aorta rings, 37° C., field stimulated; n = number of test runs
Protocol: as §1
Rabbit Aorta: Alpha 1 Adrenergic Receptors
Thoracic aorta and saphenous vein specimens were obtained from albino rabbits that were killed by CO2 inhalation. The aorta and saphenous vein were each cut into 3 mm rings. Tissues were placed in Krebs-Hensleit solution of the following composition (millimolar): NaCl 119; KCl 4.7; MgSO4 1.5, KH2 PO4 1.2; CaCl2 2.5; NaHCO3 25 and glucose 11.0. The solution also contained cocaine (0.1 millimolar) to block neuronal uptake and EDTA (30 micromolar) and ascorbic acid (5 micromolar) to prevent oxidation of the tetrahydroquinoxaline being tested. Tissues were hung in 10 ml organ baths and tension was measured via Grass FT03 force-displacement transducers. Resting tension was 1 g and 2 g for the saphenous vein and aorta, respectively. The solution was gassed with 95% O2 and 5% CO2 and maintained at 37° C. Tissues were allowed to equilibrate for 2 hours before stimulation and the cumulative addition of the tetrahydroquinoxaline being treated was started. Tissue stimulation was performed as with the rabbit vas deferens, described above. The contractions of the tissue were recorded isometrically as for the rabbit vas deferens assay. Cumulative concentration response curves were obtained and the EC50 valve developed for each tetrahydroquinoxaline tested in a manner similar to that for the rabbit vas deferens assay.

intraocular pressure = experiment: effect on intraocular pressure, topical unilateral administration to rabbit eye; assay type: in vivo, New Zealand white rabbit; conditions: 0.1% (W/V); for Difference In Intraocular Pressure, Initial Effect On Treated Eye / Difference In Intraocular Pressure, Maximum Effect on Treated Eye / Difference In Intraocular Pressure, Maximum Effect On Untreated Eye: single 50 micro liter drop, N.S. = not statistically significant; for Difference In Intraocular Pressure, Maximum Effect On Untreated Eye: untreated (contralateral) eye; for effect on intraocular pressure in the treated eye (in words): treated rabbit eye
Protocol: The three (3) tetrahydroquinoxaline derivatives produced in accordance with Examples 1 to 3 were tested to determine what effect, if any, these materials have on intraocular pressure.
Each of these materials was dissolved in distilled water at a concentration of 0.1% (W/V). Each of these solutions was administered topically and unilaterally to one eye of a drug-naive, unanesthetized New Zealand white rabbit in a single 50 micro liter drop. The contralateral eye received an equal volume of saline prior to determining the intraocular pressure after the mixture was administered. Also, approximately 10 micro liters of 0.5% (W/V) proparacaine (topical anesthetic) was applied to the corneas of each of the rabbits before determining intraocular pressure. As a control test, six (6) other drug-naive, unanesthetized New Zealand white rabbits were treated and tested as described above except that no tetrahydroquinoxaline derivative was included in the solutions administered to the eyes.
The intraocular pressure was determined in both eyes of each rabbit before and after the solutions were administered. Such intraocular pressure determinations were made in the conventional manner using conventional equipment.

Row | Structure (SMILES) | EC50 [1] [nM] | EC50 [2] [nM] | EC50 [3] [nM] | Difference In Intraocular Pressure, Initial Effect On Treated Eye (intraocular pressure) | Difference In Intraocular Pressure, Maximum Effect on Treated Eye (intraocular pressure) [%] | Difference In Intraocular Pressure, Maximum Effect On Untreated Eye (intraocular pressure) | effect on intraocular pressure in the treated eye (in words) (intraocular pressure) | effect on intraocular pressure in the untreated eye (in words) (intraocular pressure; untreated rabbit eye)
1 | CC1CNc2c(ccc(NC3=NCCN3)c2Br)N1 (racemic) [Example 2, (±)2-Methyl-5-bromo-6-(2-imidazolin-2-ylamino)-1,2,3,4-tetrahydroquinoxaline] | 581 ± 29 | 35.3 ± 3.9 | 6750 ± 116 | N.S. | -15.1 ± 3.3 | -8.6 ± 2.4% | effective to reduce intraocular pressure in the treated rabbit eye | reducing the intraocular pressure in the untreated rabbit eye
2 | CC1CNc2ccc(NC3=NCCN3)c(Br)c2N1 (racemic) [Example 3, (±) 3-Methyl-5-bromo-6-(2-imidazolin-2-ylamino)-1,2,3,4-tetrahydroquinoxaline] |  | 21.3 ± 3 | 1060 ± 271 | N.S. | -12.5 ± 2.2 | N.S. | effective to reduce intraocular pressure in the treated rabbit eye | 
